Laboratory results: patent US5276049A, “Cyclic urea derivatives, pharmaceutical compositions containing these compounds and methods of using the same” (Dr. Karl Thomae GmbH, priority 1991, dated 1994)
Counter-ions that a name gives are not always drawn.

Legend:
[1] = system: thrombocyte aggregation in platelet-rich plasma; test: Antithrombotic effect: collagen-induced thrombocyte aggregation in platelet-rich plasma (Born and Cross); type: cell-based; details: human platelet-rich plasma, 10 minutes preincubation at 37° C., read-out: Inhibition of platelet aggregation EC50
Experimental: 2. Antithrombotic Effect Method: The thrombocyte aggregation was measured in platelet-rich plasma from healthy test subjects using the Born and Cross method (J. Physiol. 170: 397 (1964)). In order to inhibit coaggulation the blood was mixed with 3.14% sodium citrate in a ratio by volume of 1:10. Collagen-induced aggregation: The decrease in the optical density of the platelet suspension was measured photometrically and recorded after the addition of the aggregation-initiating substance. The speed of aggregation was concluded from the angle of inclination of the density curve. The point on the curve at which there was maximum transmittance was used to calculate the optical density. The quantity of collagen used was as little as possible but sufficient to give an irreversible reaction curve. Standard commercial collagen produced by Hormonchemie of Munich was used. Before the addition of collagen the plasma was incubated with the substance for 10 minutes at 37° C. From the measurements obtained, an EC50 was determined graphically, relating to a 50% change in the optical density in terms of inhibiting aggregation.

[2] = system: Human Thrombocytes; test: Fibrinogen Binding to Human Thrombocytes (I125-fibrinogen, gel-filtered platelets); details: inhibition of I125-fibrinogen binding to gel-filtered human platelets, ADP, 20 minutes, ambient temperature; read-out: Fibrinogen Binding test IC50
Experimental: 1. Fibrinogen Binding to Human Thrombocytes Blood obtained by puncture of an antecubital vein was anticoagulated with trisodium citrate (final concentration: 13 mM) and centrifuged for 10 minutes at 170 *g. The supernatant platelet-rich plasma was placed on a Sepharose 2B column (Pharmacia) and eluted with a solution of 90 mM common salt, 14 mM trisodium citrate, 5 mM glucose and 50 mM tris(hydroxymethyl)aminomethane, adjusted to pH 7.4. The gel-filtered platelets (GFP) appearing in front of the plasma proteins were used for the binding tests. 50 μl of a 60 mM calcium chloride solution, 50 μl of a 0.6 mM adenosine diphosphate solution, 100 μl of substance solution or solvent and 50 μl of fibrinogen solution (containing 3 μg I125-fibrinogen) were added to 750 μl of GFP and incubated for 20 minutes at ambient temperature. The non-specific binding was measured in the presence of 3 mg/ml of cold fibrinogen. 900 μl of the incubate were carefully pipetted onto 250 μl of silicon oil (AP 38: AR 20, 1:2 v/v, Wacker Chemie) in Eppendorf vessels and centrifuged for 2 minutes at 10,000 *g. The aqueous supernatant and some of the oil were removed, the tip of the vessel with the platelet pellet was cut off and the quantity of bound fibrinogen was measured in a gamma-counter. The concentration of substance which inhibited fibrinogen binding by 50% was calculated from a series of concentrations and given as the IC50.

| EC50 [1] [µM] | IC50 [2] [µM] | Compound |
| --- | --- | --- |
| 2.1 | 7.1 | COC(=O)CCn1cc(-c2ccc(-c3ccc(C(=N)N)cc3)cc2)[nH]c1=O [2(104), 4-(4'-amidino-4-biphenylyl)-1-(2-methoxycarbonyl-ethyl)-3H-imidazol-2-one hydrochloride] |
| 1.1 | 28 | COC(=O)CCn1cc(-c2ccc(-c3ccc(C(=N)N)cc3)cc2)n(C)c1=O [2(105), 4-(4'-amidino-4-biphenylyl)-1-(2-methoxycarbonyl-ethyl)-3-methyl-3H-imidazol-2-one hydrochloride] |
| 6.6 | 2.7 | COC(=O)CCn1cc(-c2ccc(-c3ccc(C(=N)N)cc3)cc2)n(-c2ccccc2)c1=O [2(106), 4-(4'-amidino-4-biphenylyl)-1-(2-methoxycarbonyl-ethyl)-3-phenyl-3H-imidazol-2-one hydrochloride] |
| 0.08 | 0.53 | COC(=O)CCc1ccc(-n2c(C)cn(-c3ccc(C(=N)N)cc3)c2=O)cc1 [2(115), 1-(4-amidino-phenyl)-3-[4-(2-methoxycarbonyl-ethyl)-phenyl]-4-methyl-3H-imidazol-2-one hydrochloride] |
| 49 | 59 | COC(=O)CCCCn1c(=O)n(-c2ccc(C(=N)N)cc2)c2ncccc21 [2(116), 3-(4-amidino-phenyl)-1-(4-methoxycarbonyl-butyl)-3H-imidazo[4,5-b]pyridin-2-one dihydrochloride] |
| 0.07 | 2 | COC(=O)CCc1ccc(-n2c(C)nn(-c3ccc(C(=N)N)cc3)c2=O)cc1 [2(118), 2-(4-amidino-phenyl)-4-[4-(2-methoxycarbonyl-ethyl)-phenyl]-5-methyl-4H-1,2,4-triazol-3-one hydrochloride] |
| 0.04 | 0.28 | CCc1nn(-c2ccc(C(=N)N)cc2)c(=O)n1-c1ccc(CCC(=O)OC)cc1 [2(119), 2-(4-amidino-phenyl)-5-ethyl-4-[4-(2-methoxycarbonyl-ethyl)-phenyl]-4H-1,2,4-triazol-3-one hydrochloride] |
| 0.07 | 3.1 | COC(=O)CCc1ccc(-n2cnn(-c3ccc(C(=N)N)cc3)c2=O)cc1 [2(123), 2-(4-amidino-phenyl)-4-[4-(2-methoxycarbonyl-ethyl)-phenyl]-4H-1,2,4-triazol-3-one hydrochloride] |
| 18 | 5.6 | COC(=O)C(Cc1ccc(-n2ccn(-c3ccc(C(=N)N)cc3)c2=O)cc1)N(Cc1ccccc1)Cc1ccccc1 (stereo not drawn) [2(127), 1-(4-amidino-phenyl)-3-[4-(2-dibenzylamino-2-methoxycarbonyl-ethyl)-phenyl]-3H-imidazol-2-one hydrochloride] |
| 9.5 | 2.6 | COC(=O)CCN1CC(c2ccc(-c3ccc(C(=N)N)cc3)cc2)N(c2ccccc2)C1=O (stereo not drawn) [4(9), 4-(4'-amidino-4-biphenylyl)-1-(2-methoxycarbonyl-ethyl)-3-phenyl-imidazolidin-2-one hydrochloride] |
| 2.3 | 45 | COC(=O)CCN1CCN(C2CCN(c3ccc(C(=N)N)cc3)CC2)C1=O [4(11), 1-[1-(4-amidino-phenyl)-4-piperidinyl]-3-(2-methoxycarbonyl-ethyl)-imidazolidin-2-one hydrochloride] |
| 0.31 | 0.032 | N=C(N)c1ccc(-c2ccc(C3CN(CCC(=O)O)C(=O)N3c3ccccc3)cc2)cc1 (stereo not drawn) [4(13), 4-(4'-amidino-4-biphenylyl)-1-(2-carboxy-ethyl)-3-phenyl-imidazolidin-2-one hydrochloride] |
| 0.2 | 0.041 | CN1C(=O)N(CCC(=O)O)CC1c1ccc(-c2ccc(C(=N)N)cc2)cc1 (stereo not drawn) [4(14), 4-(4'-amidino-4-biphenylyl)-1-(2-carboxy-ethyl)-3-methyl-imidazolidin-2-one hydrochloride] |
| 0.3 | 0.042 | N=C(N)c1ccc(-c2ccc(C3CN(CCC(=O)O)C(=O)N3)cc2)cc1 (stereo not drawn) [4(15), 4-(4'-amidino-4-biphenylyl)-1-(2-carboxy-ethyl)-imidazolidin-2-one hydrochloride] |
| 1.9 | 1.5 | CN1C(=O)N(c2ccc(CCC(=O)O)cc2)CC1c1ccc(C(=N)N)cc1 (stereo not drawn) [4(16), 4-(4-amidino-phenyl)-1-[4-(2-carboxy-ethyl)-phenyl]-3-methyl-imidazolidin-2-one hydrochloride] |
| 0.21 | 0.048 | N=C(N)c1ccc(N2CCN(c3ccc(CC(N)C(=O)O)cc3)C2=O)cc1 (stereo not drawn) [4(18), 1-(4-amidino-phenyl)-3-[4-(2-amino-2-carboxy-ethyl)-phenyl]-imidazolidin-2-one] |
| 20 | > 100 | COC(=O)CCc1ccc(N2CCN(c3ccc(C(=N)NC(=O)OC)cc3)C2=O)cc1 [5(1), 1-(4-methoxycarbonylamidino-phenyl)-3-[4-(2-methoxycarbonyl-ethyl)-phenyl]-imidazolidin-2-one] |
| 31 | 8 | COC(=O)CCc1ccc(-n2ccn(-c3ccc(C(=N)NC(=O)OC)cc3)c2=O)cc1 [5(8), 1-(4-methoxycarbonylamidino-phenyl)-3-[4-(2-methoxycarbonyl-ethyl)-phenyl]-3H-imidazol-2-one] |
| 24 | > 10 | COC(=O)CCc1ccc(N2C(=O)CN(c3ccc(C(=N)NC(=O)OC)cc3)C2=O)cc1 [5(13), 1-(4-methoxycarbonylamidino-phenyl)-3-[4-(2-methoxycarbonyl-ethyl)-phenyl]-imidazolidin-2,4-dione] |
| 21 | 68 | COC(=O)CCc1ccc(N2CCCN(c3ccc(CN)cc3)C2=O)cc1 [8(1), 1-(4-aminomethyl-phenyl)-3-[4-(2-methoxycarbonyl-ethyl)-phenyl]-3,4,5,6-tetrahydro-1H-pyrimidin-2-one hydrochloride] |
| 0.37 | 0.45 | COC(=O)CCc1ccc(N2CCN(c3ccc(CN)cc3)C2=O)cc1 [8(2), 1-(4-aminomethyl-phenyl)-3-[4-(2-methoxycarbonyl-ethyl)-phenyl]-imidazolidin-2-one hydrochloride] |
| 6.2 | 29 | COC(=O)C(N)Cc1ccc(N2CCN(c3ccc(CN)cc3)C2=O)cc1 (stereo not drawn) [8(3), 1-[4-(2-amino-2-methoxycarbonyl-ethyl)-phenyl]-3-(4-aminomethyl-phenyl)-imidazolidin-2-one dihydrochloride] |
| 5.9 | 3 | COC(=O)CCc1ccc(N2CCN(c3ccc(CN)cc3C)C2=O)cc1 [8(5), 1-(4-aminomethyl-2-methyl-phenyl)-3-[4-(2-methoxycarbonyl-ethyl)-phenyl]-imidazolidin-2-one] |
| 0.03 | 0.043 | Cc1nn(-c2ccc(C(=N)N)cc2)c(=O)n1-c1ccc(CCC(=O)OCC(C)C)cc1 [11(12), 2-(4-amidino-phenyl)-4-[4-(2-isobutyloxycarbonyl-ethyl)-phenyl]-5-methyl-4H-1,2,4-triazol-3-one hydrochloride] |
| 0.12 | 0.42 | COC(=O)C[S+]([O-])c1ccc(N2CCN(c3ccc(C(=N)N)cc3)C2=O)cc1 (stereo not drawn) [18(5), 1-(4-amidino-phenyl)-3-(4-methoxycarbonylmethyl-sulphinyl-phenyl)-imidazolidin-2-one] |
| 0.37 | 0.17 | COC(=O)CCc1ccc(N2CCN(c3ccc4c(c3)CCC4N)C2=O)cc1 (stereo not drawn) [31(1), 1-(1-amino-5-indanyl)-3-[4-(2-methoxycarbonyl-ethyl)-phenyl]-imidazolidin-2-one hydrochloride] |
| 9.9 | 1.8 | N=C(N)c1ccc(-c2ccc(N3CCN(CC(=O)O)C3=O)cc2)cc1 [Example 1, 1-(4'-Amidino-4-biphenylyl)-3-carboxymethyl-imidazolidin-2-one] |
| 12 | 6 | COC(=O)CN1CCN(c2ccc(-c3ccc(C(=N)N)cc3)cc2)C1=O [Example 2, 1-(4'-Amidino-4-biphenylyl)-3-methoxycarbonylmethyl-imidazolidin-2-one hydrochloride] |
| 32 | 9.3 | CCOC(=O)CCc1ccc(-n2ccn(-c3ccc(C(=N)NC(=O)OCC)cc3)c2=O)cc1 [Example 5, 1-(4-Ethoxycarbonylamidino-phenyl)-3-[4-(2-ethoxycarbonyl-ethyl)-phenyl]-3H-imidazol-2-one] |
| 0.6 | 0.75 | COC(=O)COc1ccc(N2CCN(c3ccc(CN)cc3)C2=O)cc1 [Example 8, 1-(4-Aminomethyl-phenyl)-3-(4-methoxycarbonylmethyloxy-phenyl)-imidazolidin-2-one hydrochloride] |
